The text below walks through data of patent publication US11542259B2, “Compounds for the treatment of kinase-dependent disorders” (Exelixis, Inc., priority 2018, dated 2023).

Assay [1] concerns the target Human Met (residues R974-S1390 with A1209G and V1290L) (Homo sapiens, UniProt P08581). Briefly: Human Met kinase assay (33P radiometric, KinaseProfiler). Type of assay: biochemical. The settings on record: 10 μM ATP, read-out: c-Met IC50.
In assay [2] the target is Mer (Homo sapiens (Human), UniProt Q12866). Briefly: Mer autophosphorylation ELISA in transient transfected 293A cells. The assay is classed as cell-based. The settings on record: cellular, MERTK transfected 293A cells. Summed up: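 293A cells transiently transfected with human MERTK DNA, then treated 1 h with 8-point compound dilutions in serum-free medium (0.3% DMSO). Phospho-Mer in lysates quantified by sandwich ELISA against phospho-Mer standard; normalised to DMSO (100%) and reference inhibitor (0%), IC50 from 4-parameter logistic fit.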

The target in assay [3] is KDR (Homo sapiens (Human), UniProt P35968). Briefly: KDR autophosphorylation ELISA in HUVEC cells. The assay is classed as cell-based. The settings on record: cellular, VEGF165 stimulated. In a few lines:
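Read-out: phospho-KDR ELISA on cell lysates, quantified against a phospho-KDR standard, normalised to VEGF-stimulated DMSO (100%) and unstimulated (0%) wells, IC50 by 4-parameter fit. Cells were 24 h serum-starved HUVEC given compound for 1 h, then 100 ng/mL VEGF165 for 5 min.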

Broadly, the pIC50 is the IC50 on a negative log10 scale, so that one unit is a factor of ten.

pIC50: −log10 of the molar value.

Sequence of KDR (P35968 20-1356): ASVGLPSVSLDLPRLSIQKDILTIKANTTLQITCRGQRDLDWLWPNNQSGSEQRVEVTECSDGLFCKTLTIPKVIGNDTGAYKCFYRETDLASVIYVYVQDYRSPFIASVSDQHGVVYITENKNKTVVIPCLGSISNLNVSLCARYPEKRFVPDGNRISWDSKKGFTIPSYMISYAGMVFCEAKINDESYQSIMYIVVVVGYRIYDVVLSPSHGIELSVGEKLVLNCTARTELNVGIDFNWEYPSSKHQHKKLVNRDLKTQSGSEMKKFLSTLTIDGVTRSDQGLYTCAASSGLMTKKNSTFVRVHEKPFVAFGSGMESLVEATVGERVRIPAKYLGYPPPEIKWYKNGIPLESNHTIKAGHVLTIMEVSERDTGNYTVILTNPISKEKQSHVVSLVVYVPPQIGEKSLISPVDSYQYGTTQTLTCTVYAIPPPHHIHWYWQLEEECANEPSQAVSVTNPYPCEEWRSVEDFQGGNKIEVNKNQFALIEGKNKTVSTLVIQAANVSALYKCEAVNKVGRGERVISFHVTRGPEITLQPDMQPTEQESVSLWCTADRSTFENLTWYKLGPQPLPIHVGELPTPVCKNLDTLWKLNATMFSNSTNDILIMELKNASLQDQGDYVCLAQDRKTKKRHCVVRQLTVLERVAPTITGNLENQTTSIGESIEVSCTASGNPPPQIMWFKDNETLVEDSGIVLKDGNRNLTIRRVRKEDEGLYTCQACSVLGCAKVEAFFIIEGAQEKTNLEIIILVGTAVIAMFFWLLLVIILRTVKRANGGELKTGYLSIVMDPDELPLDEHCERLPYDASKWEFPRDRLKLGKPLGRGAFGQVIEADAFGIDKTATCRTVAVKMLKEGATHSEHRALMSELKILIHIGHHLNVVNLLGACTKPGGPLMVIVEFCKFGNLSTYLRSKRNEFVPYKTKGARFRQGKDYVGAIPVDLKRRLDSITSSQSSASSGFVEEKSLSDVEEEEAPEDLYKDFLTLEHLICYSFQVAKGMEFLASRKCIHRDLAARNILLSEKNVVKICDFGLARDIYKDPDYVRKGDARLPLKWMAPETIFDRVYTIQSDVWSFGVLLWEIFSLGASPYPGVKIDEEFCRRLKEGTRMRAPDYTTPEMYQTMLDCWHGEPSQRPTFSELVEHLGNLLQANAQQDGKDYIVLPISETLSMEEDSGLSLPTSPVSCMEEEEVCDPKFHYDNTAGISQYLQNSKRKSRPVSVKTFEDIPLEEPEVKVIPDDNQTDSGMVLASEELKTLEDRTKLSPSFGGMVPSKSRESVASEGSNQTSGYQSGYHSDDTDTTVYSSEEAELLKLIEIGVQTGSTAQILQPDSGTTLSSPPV
Sequence of Mer (Q12866 21-999): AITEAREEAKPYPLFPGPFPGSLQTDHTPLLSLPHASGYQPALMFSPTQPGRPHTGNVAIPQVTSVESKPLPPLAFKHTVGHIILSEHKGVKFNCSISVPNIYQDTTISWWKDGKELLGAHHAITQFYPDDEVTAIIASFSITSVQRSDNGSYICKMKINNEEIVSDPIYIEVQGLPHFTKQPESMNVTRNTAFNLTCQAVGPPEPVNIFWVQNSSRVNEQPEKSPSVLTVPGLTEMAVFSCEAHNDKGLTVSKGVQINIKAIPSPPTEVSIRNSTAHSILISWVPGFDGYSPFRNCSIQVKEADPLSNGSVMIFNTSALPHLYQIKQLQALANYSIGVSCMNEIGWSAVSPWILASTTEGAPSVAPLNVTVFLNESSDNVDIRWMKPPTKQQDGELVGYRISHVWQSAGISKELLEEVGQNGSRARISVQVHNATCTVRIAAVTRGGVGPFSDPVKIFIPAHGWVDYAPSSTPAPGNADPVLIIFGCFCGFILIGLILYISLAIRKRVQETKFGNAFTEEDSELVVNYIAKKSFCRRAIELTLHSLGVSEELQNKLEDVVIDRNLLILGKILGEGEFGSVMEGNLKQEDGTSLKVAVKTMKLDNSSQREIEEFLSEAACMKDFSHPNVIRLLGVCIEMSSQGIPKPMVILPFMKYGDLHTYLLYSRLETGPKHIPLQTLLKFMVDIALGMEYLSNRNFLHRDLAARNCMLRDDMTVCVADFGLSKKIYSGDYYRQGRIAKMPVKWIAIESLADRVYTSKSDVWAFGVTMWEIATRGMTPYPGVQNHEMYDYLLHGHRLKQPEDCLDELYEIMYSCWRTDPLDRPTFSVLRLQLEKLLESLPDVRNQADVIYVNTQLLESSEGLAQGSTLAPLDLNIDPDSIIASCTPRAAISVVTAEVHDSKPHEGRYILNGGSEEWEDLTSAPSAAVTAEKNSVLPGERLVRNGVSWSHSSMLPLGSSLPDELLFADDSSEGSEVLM

For the compound `COc1cc2nccc(Oc3ccc(NC(=O)C4(C(=O)Nc5ccc(F)cc5)CC4)cc3)c2cc1-c1cnn(C)c1` [Compound 182, 1-N′-(4-fluorophenyl)-1-N-[4-[7-methoxy-6-(1-methylpyrazol-4-yl)quinolin-4-yl]oxyphenyl]cyclopropane-1,1-dicarboxamide], the pIC50 in assay [1], in assay [2] and in assay [3] was not below 8.00 each time.

For `COc1cc2nccc(Oc3ccc(NC(=O)C4(C(=O)Nc5ccc(F)cc5)CC4)cc3F)c2cc1C(N)=O` [Compound 133, 1-N′-[4-(6-carbamoyl-7-methoxyquinolin-4-yl)oxy-3-fluorophenyl]-1-N-(4-fluorophenyl)cyclopropane-1,1-dicarboxamide], the pIC50 in assay [1], in assay [2] and in assay [3] was not below 8.00 each time.

On to `COc1cc2nccc(Oc3ccc(NC(=O)C4(C(=O)Nc5ccc(F)cc5)CC4)cc3)c2cc1-c1ncco1` [Compound 45, 1-N′-(4-fluorophenyl)-1-N-[4-[7-methoxy-6-(1,3-oxazol-2-yl)quinolin-4-yl]oxyphenyl]cyclopropane-1,1-dicarboxamide], for which the pIC50 in assay [1], in assay [2] and in assay [3] was not below 8.00 in each case.

With `COc1cc2nccc(Oc3ccc(NC(=O)C4(C(=O)Nc5ccc(F)cc5)CC4)cc3)c2cc1-c1ncc[nH]1` [Compound 191, 1-N′-(4-Fluorophenyl)-1-N-[4-[6-(1H-imidazol-2-yl)-7-methoxyquinolin-4-yl]oxyphenyl]cyclopropane-1,1-dicarboxamide], the pIC50 in assay [2] and in assay [3] was not below 8.00 in each case.

As to `COc1cc2nccc(Oc3ccc(NC(=O)C4(C(=O)Nc5ccc(F)cc5)CC4)cc3)c2cc1-c1cccc(C#N)c1F` [Compound 175, 1-N-[4-[6-(3-cyano-2-fluorophenyl)-7-methoxyquinolin-4-yl]oxyphenyl]-1-N′-(4-fluorophenyl)cyclopropane-1,1-dicarboxamide], the pIC50 in assay [1] is 7.00 to 8.00; in assay [3], 6.52 to 7.00.

As for `COC(=O)c1cc2nccc(Oc3ccc(NC(=O)C4(C(=O)Nc5ccc(F)cc5)CC4)cc3)c2cc1OC` [Compound 150, methyl 4-[4-[[1-[(4-fluorophenyl)carbamoyl]cyclopropanecarbonyl]amino]phenoxy]-6-methoxyquinoline-7-carboxylate], the pIC50 in assay [1] and in assay [3] was not below 8.00 each time.

With `COc1cc2nccc(Oc3ccc(NC(=O)C4(C(=O)Nc5ccc(F)cc5)CC4)cc3)c2cc1-c1cn[nH]c1` [Compound 186, 1-N′-(4-fluorophenyl)-1-N-[4-[7-methoxy-6-(1H-pyrazol-4-yl)quinolin-4-yl]oxyphenyl]cyclopropane-1,1-dicarboxamide], the pIC50 in assay [1] and in assay [3] was not below 8.00 each time.

Take `CONC(=O)c1cc2c(Oc3ccc(NC(=O)C4(C(=O)Nc5ccc(F)cc5)CC4)cc3)ccnc2cc1OC` [Compound 17, 1-N′-(4-fluorophenyl)-1-N-[4-[7-methoxy-6-(methoxycarbamoyl)quinolin-4-yl]oxyphenyl]cyclopropane-1,1-dicarboxamide]: the pIC50 in assay [2] was 7.00 to 8.00; in assay [3], not below 8.00.

As to `COc1cc2nccc(Oc3ccc(NC(=O)C4(C(=O)Nc5ccc(F)cc5)CC4)cc3)c2cc1C1CC1` [Compound 187, 1-N-[4-(6-cyclopropyl-7-methoxyquinolin-4-yl)oxyphenyl]-1-N′-(4-fluorophenyl)cyclopropane-1,1-dicarboxamide], the pIC50 in assay [1] and in assay [3] was 7.00 to 8.00 in each case.

Consider `COC(=O)c1ccc2c(Oc3ccc(NC(=O)C4(C(=O)Nc5ccc(F)cc5)CC4)cc3)ccnc2c1` [Compound 162, methyl 4-[4-[[1-[(4-fluorophenyl)carbamoyl]cyclopropanecarbonyl]amino]phenoxy]quinoline-7-carboxylate], for which the negative logarithm of the IC50 (pIC50) in assay [1] and in assay [3] was 7.00 to 8.00 throughout.

Regarding `COc1cc2nccc(Oc3ccc(NC(=O)C4(C(=O)Nc5ccc(F)cc5)CC4)cc3)c2cc1-c1c(C)noc1C` [Compound 184, 1-N-[4-[6-(3,5-dimethyl-1,2-oxazol-4-yl)-7-methoxyquinolin-4-yl]oxyphenyl]-1-N′-(4-fluorophenyl)cyclopropane-1,1-dicarboxamide], the values for the negative logarithm of the IC50 (pIC50) in assay [1] and in assay [3] were 7.00 to 8.00 and less than 6.52, respectively.

Consider `COC(=O)c1cc2nccc(Oc3ccc(NC(=O)C4(C(=O)Nc5ccc(F)cc5)CC4)cc3)c2cc1C` [Compound 140, methyl 4-[4-[[1-[(4-fluorophenyl)carbamoyl]cyclopropanecarbonyl]amino]phenoxy]-6-methylquinoline-7-carboxylate], for which the pIC50 in assay [1] and in assay [3] was 7.00 to 8.00 throughout.

For the compound `COc1cc2nccc(Oc3ccc(NC(=O)C4(C(=O)Nc5ccc(F)cc5)CC4)cc3)c2cc1-c1cnoc1` [Compound 183, 1-N′-(4-fluorophenyl)-1-N-[4-[7-methoxy-6-(1,2-oxazol-4-yl)quinolin-4-yl]oxyphenyl]cyclopropane-1,1-dicarboxamide], the pIC50 in assay [1] is not below 8.00; in assay [3], 7.00 to 8.00.

With `COc1cc2nccc(Oc3ccc(NC(=O)C4(C(=O)Nc5ccc(F)cc5)CC4)cc3)c2cc1C1(O)COC1` [Compound 196, 1-N′-(4-fluorophenyl)-1-N-[4-[6-(3-hydroxyoxetan-3-yl)-7-methoxyquinolin-4-yl]oxyphenyl]cyclopropane-1,1-dicarboxamide], the pIC50 in assay [1] was not below 8.00; in assay [3], 7.00 to 8.00.

For the compound `CCNC(=O)c1cc2c(Oc3ccc(NC(=O)C4(C(=O)Nc5ccc(F)cc5)CC4)cc3)ccnc2cc1OC` [Compound 9, 1-N-[4-[6-(ethylcarbamoyl)-7-methoxyquinolin-4-yl]oxyphenyl]-1-N′-(4-fluorophenyl)cyclopropane-1,1-dicarboxamide], the negative-log IC50 (pIC50) in assay [2] and in assay [3] was not below 8.00 in each case.

Take `COc1cc2nccc(Oc3ccc(NC(=O)C4(C(=O)Nc5ccc(F)cc5)CC4)cc3)c2cc1C(=O)N1CCC1` [Compound 15, 1-N-[4-[6-(azetidine-1-carbonyl)-7-methoxyquinolin-4-yl]oxyphenyl]-1-N′-(4-fluorophenyl)cyclopropane-1,1-dicarboxamide]: the results for the pIC50 in assay [1] and in assay [3] were 7.00 to 8.00 and less than 6.52, respectively.

For `COc1cc2nccc(Oc3ccc(NC(=O)C4(C(=O)Nc5ccc(F)cc5)CC4)cc3)c2cc1-c1ccc[nH]1` [Compound 188, 1-N′-(4-fluorophenyl)-1-N-[4-[7-methoxy-6-(1H-pyrrol-2-yl)quinolin-4-yl]oxyphenyl]cyclopropane-1,1-dicarboxamide], the negative-log IC50 (pIC50) is not below 8.00 in assay [1] and 7.00 to 8.00 in assay [3].

Consider `COc1cc2nccc(Oc3ccc(NC(=O)C4(C(=O)Nc5ccc(F)cc5)CC4)cc3)c2cc1C1(O)CN(C(=O)OC(C)(C)C)C1` [Compound 195, tert-butyl 3-[4-[4-[[1-[(4-fluorophenyl)carbamoyl]cyclopropanecarbonyl]amino]phenoxy]-7-methoxyquinolin-6-yl]-3-hydroxyazetidine-1-carboxylate], for which the negative logarithm of the IC50 (pIC50) in assay [1] and in assay [3] was 7.00 to 8.00 throughout.

Take `CNC(=O)c1ccc2nccc(Oc3ccc(NC(=O)C4(C(=O)Nc5ccc(F)cc5)CC4)cc3)c2c1` [Compound 59, 1-N′-(4-fluorophenyl)-1-N-[4-[6-(methylcarbamoyl)quinolin-4-yl]oxyphenyl]cyclopropane-1,1-dicarboxamide]: the pIC50 is 7.00 to 8.00 in assay [1] and 6.52 to 7.00 in assay [3].

Regarding `CNC(=O)c1cc2nccc(Oc3ccc(NC(=O)C4(C(=O)Nc5ccc(F)cc5)CC4)cc3)c2cc1OC` [Compound 153, 1-N′-(4-fluorophenyl)-1-N-[4-[6-methoxy-7-(methylcarbamoyl)quinolin-4-yl]oxyphenyl]cyclopropane-1,1-dicarboxamide], the negative logarithm of the IC50 (pIC50) in assay [1] and in assay [3] was 7.00 to 8.00 in each case.

On to `NC(=O)c1ccc2nccc(Oc3ccc(NC(=O)C4(C(=O)Nc5ccc(F)cc5)CC4)cc3)c2c1` [Compound 58, 1-N-[4-(6-carbamoylquinolin-4-yl)oxyphenyl]-1-N′-(4-fluorophenyl)cyclopropane-1,1-dicarboxamide], for which the pIC50 in assay [1] is 7.00 to 8.00; in assay [3] it was 6.52 to 7.00.

With `COc1cc2nccc(Oc3ccc(NC(=O)C4(C(=O)Nc5ccc(F)cc5)CC4)cc3)c2cc1-c1ccncc1` [Compound 202, 1-N′-(4-Fluorophenyl)-1-N-[4-(7-methoxy-6-pyridin-4-ylquinolin-4-yl)oxyphenyl]cyclopropane-1,1-dicarboxamide], the pIC50 in assay [1] is not below 8.00; in assay [3], 7.00 to 8.00.

Regarding `COc1cc2nccc(Oc3ccc(NC(=O)C4(C(=O)Nc5ccc(F)cc5)CC4)cc3)c2cc1C(=O)NC1COC1` [Compound 13, 1-N′-(4-fluorophenyl)-1-N-[4-[7-methoxy-6-(oxetan-3-ylcarbamoyl)quinolin-4-yl]oxyphenyl]cyclopropane-1,1-dicarboxamide], the pIC50 in assay [1] and in assay [3] was not below 8.00 in each case.

Consider `CN1CC(NC(=O)c2ccc3nccc(Oc4ccc(NC(=O)C5(C(=O)Nc6ccc(F)cc6)CC5)cc4)c3c2)C1` [Compound 60, 1-N′-(4-fluorophenyl)-1-N-[4-[6-[(1-methylazetidin-3-yl)carbamoyl]quinolin-4-yl]oxyphenyl]cyclopropane-1,1-dicarboxamide], for which the negative logarithm of the IC50 (pIC50) is 7.00 to 8.00 in assay [1] and less than 6.52 in assay [3].

`COC(=O)c1cc2c(Oc3ccc(NC(=O)C4(C(=O)Nc5ccc(F)cc5)CC4)cc3F)ccnc2cc1OC` [Compound 129, methyl 4-[2-fluoro-4-[[1-[(4-fluorophenyl)carbamoyl]cyclopropanecarbonyl]amino]phenoxy]-7-methoxyquinoline-6-carboxylate]: the negative logarithm of the IC50 (pIC50) in assay [1] and in assay [3] was not below 8.00 each time.
